Test results taken from ChEMBL document CHEMBL5335851, “Total Synthesis, Structure Reassignment, and Biological Evaluation of the Anti-Inflammatory Macrolactone 13-Hydroxy-14-deoxyoxacyclododecindione” (J Nat Prod, 2024).

These molecules were tested against Mothers against decapentaplegic homolog 2/homolog 3 (Homo sapiens, UniProt P84022+Q15796) (assay: Inhibition of TGF-beta induced Smad2/3 signaling in human HepG2 cells harboring pRL-EF1alpha, (CAGA)9x-MLP-Luc plasmid assessed as luciferase activity incubated for 24 hrs).
Type: cell-based

In order of falling IC50:
1. C/C1=C\C[C@@H](O)[C@H](C)[C@H](C)OC(=O)Cc2c(Cl)c(O)cc(O)c2C1=O  240 nM
2. C/C1=C\C[C@H](O)[C@H](C)[C@H](C)OC(=O)Cc2c(Cl)c(O)cc(O)c2C1=O  140 nM
3. C/C1=C/C[C@@H](O)[C@H](C)[C@@H](C)OC(=O)Cc2c(Cl)c(O)cc(O)c2C1=O  100 nM
4. C/C1=C/C[C@H](O)[C@H](C)[C@@H](C)OC(=O)Cc2c(Cl)c(O)cc(O)c2C1=O  68 nM
5. C/C1=C\C[C@H](O)[C@H](C)[C@@H](C)OC(=O)Cc2c(Cl)c(O)cc(O)c2C1=O  68 nM

These molecules were tested against T1, Signal transducer and activator of transcription 6 (Homo sapiens, UniProt P42226) (assay: Inhibition of IL-4 induced STAT6 signaling in human HepG2 cells harboring pRL-EF1alpha, pGL3-TK-7xN4 and TOPO-Stat6 plasmid assessed as luciferase activity incubated for 24 hrs).
T1 sequence (P42226 whole entry): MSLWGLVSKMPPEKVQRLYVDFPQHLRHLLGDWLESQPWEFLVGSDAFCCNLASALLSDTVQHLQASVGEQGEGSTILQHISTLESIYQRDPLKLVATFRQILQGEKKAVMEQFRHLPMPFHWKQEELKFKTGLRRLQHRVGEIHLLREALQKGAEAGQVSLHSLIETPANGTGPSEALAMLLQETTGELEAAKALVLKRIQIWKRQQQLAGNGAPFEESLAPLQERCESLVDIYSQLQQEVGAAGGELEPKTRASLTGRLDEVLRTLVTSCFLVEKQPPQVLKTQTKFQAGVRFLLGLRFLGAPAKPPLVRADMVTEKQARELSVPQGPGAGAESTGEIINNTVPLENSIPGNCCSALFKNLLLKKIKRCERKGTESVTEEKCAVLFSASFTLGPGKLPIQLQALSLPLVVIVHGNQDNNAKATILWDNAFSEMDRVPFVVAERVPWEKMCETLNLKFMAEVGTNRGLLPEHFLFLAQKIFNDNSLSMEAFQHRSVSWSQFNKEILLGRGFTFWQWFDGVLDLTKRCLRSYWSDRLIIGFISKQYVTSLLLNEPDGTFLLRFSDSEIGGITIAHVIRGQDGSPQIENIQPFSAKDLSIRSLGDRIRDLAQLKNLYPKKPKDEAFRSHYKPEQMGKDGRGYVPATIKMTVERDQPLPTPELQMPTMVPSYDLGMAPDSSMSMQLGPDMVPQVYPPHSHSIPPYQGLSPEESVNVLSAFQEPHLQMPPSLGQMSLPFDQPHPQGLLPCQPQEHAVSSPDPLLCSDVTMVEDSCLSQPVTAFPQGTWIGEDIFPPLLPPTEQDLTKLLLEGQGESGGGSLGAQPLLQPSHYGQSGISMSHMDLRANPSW
Type: cell-based

In order of rising IC50:
1. C/C1=C\CC[C@H](C)[C@@H](C)OC(=O)Cc2c(Cl)c(O)cc(O)c2C1=O  20 nM
2. C/C1=C\C[C@@H](O)[C@H](C)[C@@H](C)OC(=O)Cc2c(Cl)c(O)cc(O)c2C1=O  56 nM
3. C/C1=C\CCC(C)(O)C(C)OC(=O)Cc2c(Cl)c(O)cc(O)c2C1=O (centres undefined)  68 nM
4. C/C1=C\CCC(C)(C)C(C)OC(=O)Cc2c(Cl)c(O)cc(O)c2C1=O (centres undefined)  79 nM
